{"source": "patent US12005056B2", "about": "“Centrally-active ghrelin agonist and medical uses thereof” (Helsinn Healthcare SA, priority 2018, dated 2024)", "key": {"proteasome activity": {"test_system": "proteasome activity", "assay": "Proteasome inhibition study in bortezomib-treated rats", "assay_type": "in vivo, Wistar rats", "conditions": "co-administration at different doses, preventive or therapeutic settings", "procedure": "At baseline and after 8 weeks of treatment, caudal and digital nerve conduction and potential amplitude studies, behavioral tests (Dynamic) and blood collection to study proteasome inhibition were performed. After 8 weeks of treatment, tissue samples (sciatic and caudal nerves, DRG and foot pads) were collected and analyzed to study morphological parameters and intraepidermal nerve fibre density (IENFD).\nAt baseline and after 8 weeks of treatment, caudal and digital nerve conduction and potential amplitude studies and blood collection to study proteasome inhibition were performed. […] After 8 weeks of treatment, sciatic nerves, caudal nerves, DRG and foot pads were collected from all animals and analyzed to study morphological parameters and IENFDs."}, "[1]": {"test_system": "bortezomib-treated Wistar rats", "assay": "Bortezomib study, therapeutic paradigm", "conditions": "for Allodynia / Body Weight / DRG/nerve pathology / IENFD / NCS: Bortezomib Therapeutic setting, 0.2 mg/kg (i.v.) 3 times/week for 8 weeks"}, "[2]": {"test_system": "cisplatin-treated Wistar rats", "assay": "Cisplatin study (body weight, food intake, von Frey testing)", "assay_type": "in vivo", "conditions": "for Body Weight / Allodynia: Cisplatin 0.5 mg/kg (i.p.) for three days", "procedure": "Compound A was made as a suspension in 0.5% carboxymethylcellulose solution in dosing volumes of 1 and 10 mL/kg for rats and mice respectively and dosed orally at 3, 10 or 30 mg/kg. […] Bortezomib was prepared in 10% Tween 80, 10% EtOH 100% and 80% saline solution and injected i.v. (1 mL/kg) at 0.2 mg/kg.\nFifty male Wistar rats weighing 250-300 g at start of experiment were randomly divided into 5 groups of 10 rats each. Group 1 received daily Compound A vehicle (p.o.) for 6 days and cisplatin vehicle (i.p.) for 3 days. Group 2 received Compound A vehicle (p.o) and 0.5 mg/kg cisplatin (i.p.) for 3 days followed by Compound A vehicle for 3 additional days. Group 3 received daily 3 mg/kg Compound A (p.o) and 0.5 mg/kg cisplatin (i.p.) for 3 days followed by 3 mg/kg Compound A for an additional 3 days. Group 4 received 10 mg/kg Compound A (p.o) and 0.5 mg/kg cisplatin (i.p.) for 3 days followed by 10 mg/kg Compound A for an additional 3 days. Group 5 received daily 30 mg/kg Compound A (p.o.) and 0.5 mg/kg cisplatin (i.p.) for 3 days followed by 30 mg/kg Compound A for an additional 3 days. In each case, cisplatin or cisplatin vehicle was dosed 30 min after Compound A or Compound A vehicle, which was dosed 1 hour prior to von Frey filament testing. Individual body weights and 24 h food intake were measured daily from just prior to initiation of dosing.\nIn the cisplatin study, rats were individually housed and acclimated to handling and to the Von Frey testing apparatus for several days prior to start of the experiment. Baseline measurements were obtained prior to dosing. Behavioral testing was conducted following procedures previously described (28). Each filament was tested 5 times and the test continued until 3 withdrawal responses to a particular filament were recorded."}, "human GHSR1 receptor": {"biological_target": "T1, human GHSR1 receptor (Homo sapiens, UniProt Q92847)", "T1 construct": "expressed in transfected cells; host or cells: BHK cells (membrane preparation)", "T1 sequence (Q92847 whole entry)": "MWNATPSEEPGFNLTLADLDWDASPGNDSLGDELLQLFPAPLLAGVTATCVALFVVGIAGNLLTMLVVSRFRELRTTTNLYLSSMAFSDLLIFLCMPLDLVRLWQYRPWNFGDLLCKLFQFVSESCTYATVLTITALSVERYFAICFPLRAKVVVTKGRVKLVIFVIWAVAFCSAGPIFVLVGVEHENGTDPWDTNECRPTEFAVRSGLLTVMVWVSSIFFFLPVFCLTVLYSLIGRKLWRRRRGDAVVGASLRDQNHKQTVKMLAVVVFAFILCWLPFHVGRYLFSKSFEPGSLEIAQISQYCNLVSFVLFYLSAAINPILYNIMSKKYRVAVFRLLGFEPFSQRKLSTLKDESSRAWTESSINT", "assay": "[125I]Ghrelin binding assay on membranes from BHK cells", "conditions": "1 nM [125I]Ghrelin, BHK cell membranes", "procedure": "In additional binding study, compound A was dissolved in DMSO and diluted with water in different range of concentrations. Membrane protein prepared from BHK cells stably expressing human GHSR1 receptor were used for binding assay. The membrane was diluted in assay buffer to yield 20 μg/well in 120 μl. The binding assay was set up in 96 well plate as following: 120 μl [^125I]Ghrelin (final concentration 1 nM) and 15 μl compound A (10×) diluted in the assay buffer. The reaction mixture was incubated at room temperature for 30 minutes before terminating by quick filtration onto GF/B filtration plate pre-soaked in 0.3% PEI using cell harvester (Perkin Elmer). The filter was washed three times and dried at 37° overnight. The radioactivity bound to filter membrane was measured with MicroBeta Trilux (Perkin Elmer)."}, "[3]": {"conditions": "rat, in vivo"}, "[4]": {"procedure": "The stability of Compound A was followed by HPLC analysis. […] Additionally a stability study was performed over 3 years on industrial batch of dried material."}, "[5]": {"conditions": "therapeutic setting, all doses, monohydrochloride salt"}, "[6]": {"conditions": "crude wet material, batch #01, 2-8° C., t = 0"}, "[7]": {"conditions": "crude wet material, batch #01, 2-8° C., t = 8 days"}, "[8]": {"conditions": "crude wet material, batch #01, 2-8° C., t = 30 days"}, "[9]": {"conditions": "crude wet material, batch #02, rt under air, t = 0"}, "[10]": {"conditions": "crude wet material, batch #02, rt under air, t = 24 days"}, "[11]": {"conditions": "during drying at 60° C., t = 74 hours"}}, "note": "“Also recorded” adds a separate entry of the source. Read-outs that look alike come from different tables or passages of the source."}
{"substance": "3-(1-(2,3-dichloro-4-methoxyphenyl) ethyl)-1-methyl-1-(1,3,3-trimethylpiperidin-4-yl)urea monohydrochloride salt [Compound A]", "values": [{"measurement": "bortezomib-induced proteasome inhibition", "setting": "proteasome activity", "value": "did not impair"}, {"measurement": "Allodynia", "setting": "[1]; Compound A dose 3", "value": "+"}, {"measurement": "Body Weight", "setting": "[1]; Compound A dose 3", "value": "+/−"}, {"measurement": "DRG/nerve pathology", "setting": "[1]; Compound A dose 3", "value": "−"}, {"measurement": "IENFD", "setting": "[1]; Compound A dose 3", "value": "−"}, {"measurement": "NCS", "setting": "[1]; Compound A dose 3", "value": "+/−"}, {"measurement": "Allodynia", "setting": "[1]; Compound A dose 10", "value": "+"}, {"measurement": "Body Weight", "setting": "[1]; Compound A dose 10", "value": "+/−"}, {"measurement": "DRG/nerve pathology", "setting": "[1]; Compound A dose 10", "value": "+/−"}, {"measurement": "IENFD", "setting": "[1]; Compound A dose 10", "value": "−"}, {"measurement": "NCS", "setting": "[1]; Compound A dose 10", "value": "+/−"}, {"measurement": "Allodynia", "setting": "[1]; Compound A dose 30", "value": "+"}, {"measurement": "Body Weight", "setting": "[1]; Compound A dose 30", "value": "+/−"}, {"measurement": "DRG/nerve pathology", "setting": "[1]; Compound A dose 30", "value": "+/−"}, {"measurement": "IENFD", "setting": "[1]; Compound A dose 30", "value": "−"}, {"measurement": "NCS", "setting": "[1]; Compound A dose 30", "value": "−"}, {"measurement": "protective effects on DRG/nerve pathology", "setting": "[1]; therapeutic setting", "value": "not present"}, {"measurement": "allodynia vs CTRL (mechanical threshold)", "setting": "[1]; therapeutic setting, after 5 weeks and at the end of treatment, all doses", "value": "protected"}, {"measurement": "caudal NCV and potential amplitude vs CTRL", "setting": "[1]; [5]", "value": "statistically significant reduction"}, {"measurement": "digital NCV vs CTRL", "setting": "[1]; [5]", "value": "statistically significant reduction only the animals treated with bortezomib alone; also recorded: Only the animals treated with bortezomib alone showed a significant reduction"}, {"measurement": "body weight vs. CTRL and bortezomib groups", "setting": "[1]; therapeutic setting, end of treatment, Compound A 30", "value": "significant increase in body weight"}, {"measurement": "body weight vs. CTRL and bortezomib groups", "setting": "[1]; therapeutic setting, following 10 days co-treatment", "value": "significant increase of body weight"}, {"measurement": "digital potential amplitude vs CTRL", "setting": "[1]; therapeutic setting, highest dose of Compound A", "value": "reduction in potential amplitude"}, {"measurement": "Body Weight", "setting": "[2]; Compound A dose 3", "value": "+"}, {"measurement": "Allodynia", "setting": "[2]; Compound A dose 10", "value": "+"}, {"measurement": "Body Weight", "setting": "[2]; Compound A dose 10", "value": "+"}, {"measurement": "Allodynia", "setting": "[2]; Compound A dose 30", "value": "+"}, {"measurement": "Body Weight", "setting": "[2]; Compound A dose 30", "value": "+"}, {"measurement": "cisplatin-induced mechanical hyperalgesia", "setting": "[2]; Compound A 3 mg/kg p.o., monohydrochloride salt, 3 mg/kg", "value": "no significant effect and not"}, {"measurement": "paw withdrawal thresholds compared to vehicle-treated rats", "setting": "[2]; Compound A 30 mg/kg, Days 3 thru 5", "value": "significantly increased"}, {"measurement": "overall food intake compared to cisplatin alone", "setting": "[2]; Compound A 3, 10 and 30 mg/kg p.o.", "value": "increased"}, {"measurement": "body weight compared to cisplatin alone", "setting": "[2]; Compound A 3, 10 and 30 mg/kg p.o., monohydrochloride salt", "value": "increased; also recorded: improved"}, {"measurement": "food intake compared to cisplatin alone", "setting": "[2]; Compound A 10 and 30 mg/kg p.o. (FIG. 1B)", "value": "improved"}, {"measurement": "cisplatin-induced mechanical hyperalgesia", "setting": "[2]; Compound A 10 and 30 mg/kg p.o., monohydrochloride salt", "value": "significantly reduced; also recorded: significantly improved"}, {"measurement": "Ki", "setting": "human GHSR1 receptor", "value": "1.42 ± 0.35", "unit": "nM"}, {"measurement": "F", "setting": "[3]", "value": 70.6, "unit": "%"}, {"measurement": "2 hr brain concentration", "setting": "[3]; iv", "value": "172.", "unit": "ng · g"}, {"measurement": "2 hr plasma concentration", "setting": "[3]; iv", "value": 119.3, "unit": "ng/mL"}, {"measurement": "AUC (0-t)", "setting": "[3]; iv, 3 mg/kg", "value": 701.5, "unit": "ng·h/mL"}, {"measurement": "Cmax", "setting": "[3]; iv, 3 mg/kg", "value": 468.4, "unit": "ng/mL"}, {"measurement": "T1/2 z", "setting": "[3]; iv, 3 mg/kg", "value": 1.6, "unit": "h"}, {"measurement": "Vz/F", "setting": "[3]; iv, 3 mg/kg", "value": 9.9, "unit": "L/kg"}, {"measurement": "AUC (0-t)", "setting": "[3]; po, 3 mg/kg", "value": 495.3, "unit": "ng·h/mL"}, {"measurement": "Cmax", "setting": "[3]; po, 3 mg/kg", "value": 58.6, "unit": "ng/mL"}, {"measurement": "T1/2 z", "setting": "[3]; po, 3 mg/kg", "value": 12.7, "unit": "h"}, {"measurement": "Vz/F", "setting": "[3]; po, 3 mg/kg", "value": 38.6, "unit": "L/kg"}, {"measurement": "tmax", "setting": "[3]; po, 3 mg/kg", "value": 3.3, "unit": "h"}, {"measurement": "Compound A, HPLC results", "setting": "[4]; [6]", "value": 99.60, "unit": "%"}, {"measurement": "Impurity RRT 0.97, HPLC results", "setting": "[4]; [6]", "value": 0.40, "unit": "%"}, {"measurement": "Compound A, HPLC results", "setting": "[4]; [7]", "value": 99.70, "unit": "%"}, {"measurement": "Impurity RRT 0.97, HPLC results", "setting": "[4]; [7]", "value": 0.29, "unit": "%"}, {"measurement": "Compound A, HPLC results", "setting": "[4]; [8]", "value": 99.75, "unit": "%"}, {"measurement": "Impurity RRT 0.97, HPLC results", "setting": "[4]; [8]", "value": 0.25, "unit": "%"}, {"measurement": "Compound A, HPLC results", "setting": "[4]; [9]", "value": 99.74, "unit": "%"}, {"measurement": "Impurity RRT 0.97, HPLC results", "setting": "[4]; [9]", "value": 0.24, "unit": "%"}, {"measurement": "Compound A, HPLC results", "setting": "[4]; [10]", "value": 99.73, "unit": "%"}, {"measurement": "Impurity RRT 0.97, HPLC results", "setting": "[4]; [10]", "value": 0.27, "unit": "%"}, {"measurement": "Compound A, HPLC results", "setting": "[4]; during drying at 60° C., t = 0", "value": 99.83, "unit": "%"}, {"measurement": "Impurity RRT 0.97, HPLC results", "setting": "[4]; during drying at 60° C., t = 0", "value": 0.17, "unit": "%"}, {"measurement": "Compound A, HPLC results", "setting": "[4]; [11]", "value": 99.78, "unit": "%"}, {"measurement": "Impurity RRT 0.97, HPLC results", "setting": "[4]; [11]", "value": 0.17, "unit": "%"}]}
